Measured values published in patent US4145554A, “3-Nitropyrazole derivatives” (Eli Lilly and Company, priority 1977, dated 1979).
Converted amounts (≈) assume the structure as drawn. Read-outs that look alike come from different tables or passages of the source.

What was measured:
Salmonella dublin = experiment: in vitro tube dilution test (MIC); format: cell-based; settings: Salmonella enterica
From the text: (§1) The other preferred compounds of our invention have also been thoroughly tested in the in vitro tube dilution test.
(§2) Other compounds of our invention have also been tested in the tube dilution test and shown to have in vitro activity against a number of microorganisms. The table below reports tests of a number of exemplary compounds against exemplary microorganisms. The compounds are identified by their numbers in the listing above. The data are reported as the MIC in micrograms per milliliter against the named exemplary microorganisms.

[1] = system: Staphylococcus aureus sp. 1130; experiment: in vitro tube dilution test (MIC); format: cell-based
From the text: as §1, §2

Vibrio coli 3811 = experiment: in vitro tube dilution test (MIC); format: cell-based; settings: Campylobacter coli
From the text: as §1, §2

Streptococcus sp. 80 = experiment: in vitro tube dilution test (MIC); format: cell-based
From the text: as §2

Pasteurella multocida = experiment: in vitro tube dilution test (MIC); format: cell-based
From the text: (§3) Our compound, 1-(2-hydroxyethyl)-3-nitro-4-pyrazolecarboxamide, has been extensively tested in vitro to determine the range of microorganisms against which it is active. The table of data below reports the minimum inhibitory concentration (MIC) at which the compound is effective in controlling a variety of microorganisms in a standard tube dilution test system. The MIC is reported as micrograms of compound per milliliter.
as §1, §2

Escherichia coli = experiment: in vitro tube dilution test (MIC); format: cell-based
From the text: as §3, §2

Mycoplasma gallisepticum = experiment: in vitro tube dilution test (MIC); format: cell-based; settings: Mycoplasmoides gallisepticum
From the text: as §3, §2

Salmonella typhimurium = experiment: Salmonellosis in chickens, single injection to day-old chicks; format: in vivo; settings: Salmonella enterica, TYPHIMURIUM, 168 h; single injection of 60 mg./kg.; seven days; read-out: Survival (converted)
Protocol: A number of our 3-nitropyrazoles have been tested against an induced infection of Salmonella typhimurium in day-old chicks. The test was conducted by administering a single injection of 60 mg./kg. of the compounds to each of five chicks. The following day, the chicks were challenged by the subcutaneous injection of a dispersion of S. typhimurium organisms sufficient to kill most or all of the untreated control chicks.
Some of the compounds were tested more than once, in which instances the data are reported as the total survivors from the multiple treatment groups. Untreated, challenged control groups of chicks were tested together with each batch of groups of chicks to which test compounds were administered. Since the mortality of the untreated control chicks varied somewhat from one group of tests to another, results of the untreated control groups are reported below with each test.

[2] = Salmonella dublin, tube dilution, read-out: MIC
[3] = Staphylococcus aureus sp. 1130, tube dilution, read-out: MIC
[4] = Vibrio coli 3811, tube dilution, read-out: MIC
[5] = Streptococcus sp. 80, tube dilution, read-out: MIC
[6] = Mycoplasma gallisepticum, tube dilution, read-out: MIC

| SMILES | MIC (Salmonella dublin; [2]) [mg/L] | MIC [1, 3] [mg/L] | MIC (Vibrio coli 3811; [4]) [mg/L] | MIC (Streptococcus sp. 80; [5]) [mg/L] | MIC (Pasteurella multocida; tube dilution, read-out: MIC) [mg/L] | MIC (Escherichia coli; tube dilution, read-out: MIC) [mg/L] | MIC (Mycoplasma gallisepticum; [6]) [mg/L] | MIC (Salmonella dublin) [mg/L] | MIC ([1]; Staphylococcus aureus, SP.1130) [mg/L] | MIC (Vibrio coli 3811; 3811) [mg/L] | MIC (Streptococcus sp. 80; Streptococcus, SP.80) [mg/L] | MIC (Pasteurella multocida) [mg/L] | MIC (Escherichia coli) [mg/L] | MIC (Mycoplasma gallisepticum) [mg/L] | responders at 60 mg/kg (Salmonella typhimurium) [%] |
| --- | --- | --- | --- | --- | --- | --- | --- | --- | --- | --- | --- | --- | --- | --- | --- |
| NC(=O)c1cn(CCN2C(=O)c3ccccc3C2=O)nc1[N+](=O)[O-] [Compound 10, 1-(2-phthalimidoethyl)-3-nitro-4-pyrazolecarboxamide] | > 50 | 6.25 (≈ 19 µM) | 50 (≈ 152 µM) | 6.25 (≈ 19 µM) | 25 (≈ 75.9 µM) | 50 (≈ 152 µM) | 50 (≈ 152 µM) |  |  |  |  |  |  |  |  |
| CCS(=O)(=O)CCn1cc(C#N)c([N+](=O)[O-])n1 [Compound 86, 1-(2-ethylsulfonyethyl)-3-nitro-4-pyrazolecarbonitrile] | > 50 | > 50 | 25 (≈ 96.8 µM) | > 50 | > 50 | > 50 | 50 (≈ 194 µM) |  |  |  |  |  |  |  |  |
| O=C(NN=Cc1ccc([N+](=O)[O-])o1)c1cn(CCO)nc1[N+](=O)[O-] [Compound 94, 1-(2-hydroxyethyl)-3-nitropyrazole-4-carboxylic acid, 5-nitrofurfurylidene hydrazide] |  |  |  |  |  |  |  | 25 (≈ 73.9 µM) | 6.25 (≈ 18.5 µM) | < 1.56 | 25 (≈ 73.9 µM) | < 1.56 | 25 (≈ 73.9 µM) | 6.25 (≈ 18.5 µM) |  |
| N#Cc1cn(Cc2ccccc2)nc1[N+](=O)[O-] [Compound 70, 1-benzyl-3-nitro-4-pyrazolecarbonitrile] | 100 (≈ 438 µM) | 100 (≈ 438 µM) | 12.5 (≈ 54.8 µM) | 100 (≈ 438 µM) |  | 100 (≈ 438 µM) | > 50 |  |  |  |  |  |  |  |  |
| NC(=O)c1cn(-c2ncc([N+](=O)[O-])s2)nc1[N+](=O)[O-] [Compound 95, 3-nitro-1-(5-nitro-2-thiazolyl)pyrazole-4-carboxamide] |  |  |  |  |  |  |  | 25 (≈ 88 µM) | < 1.56 | < 1.56 | 50 (≈ 176 µM) | 3.12 (≈ 11 µM) | > 50 | 12.5 (≈ 44 µM) |  |
| CSCCn1cc(C(N)=O)c([N+](=O)[O-])n1 [Compound 97, 1-[2-(methylthio)ethyl]-3-nitropyrazole-4-carboxamide] | > 50 | > 50 | 12.5 (≈ 54.3 µM) | > 50 | 25 (≈ 109 µM) | > 50 | 25 (≈ 109 µM) |  |  |  |  |  |  |  |  |
| CCOC(Cn1cc(C#N)c([N+](=O)[O-])n1)OCC [Compound 67, 1-(2,2-diethoxyethyl)-3-nitro-4-pyrazolecarbonitrile] | 50 (≈ 197 µM) | 50 (≈ 197 µM) | 50 (≈ 197 µM) | 50 (≈ 197 µM) | 25 (≈ 98.3 µM) | 50 (≈ 197 µM) | 50 (≈ 197 µM) |  |  |  |  |  |  |  |  |
| C#CCn1cc(C#N)c([N+](=O)[O-])n1 [Compound 4, 1-propargyl-3-nitro-4-pyrazolecarbonitrile] | 50 (≈ 284 µM) | > 50 | 6.25 (≈ 35.5 µM) | > 50 | 12.5 (≈ 71 µM) | 50 (≈ 284 µM) | 50 (≈ 284 µM) |  |  |  |  |  |  |  |  |
| NC(=O)c1cn(CCOC(=O)c2ccc(Cl)c(Cl)c2)nc1[N+](=O)[O-] [Compound 98, 2-(4-carbamoyl-3-nitropyrazol-1-yl)ethyl 3,4-dichlorobenzoate] |  |  |  |  |  |  |  |  |  |  |  |  |  |  | 100 |
| CCCCCCCCCn1cc(C(N)=O)c([N+](=O)[O-])n1 [Compound 48, 3-nitro-1-nonyl-4-pyrazolecarboxamide] | > 50 | 25 (≈ 88.5 µM) | 50 (≈ 177 µM) | > 50 | 0.39 (≈ 1.38 µM) | > 50 | 50 (≈ 177 µM) |  |  |  |  |  |  |  |  |
| N#Cc1cn(-c2ncc([N+](=O)[O-])s2)nc1[N+](=O)[O-] [Compound 68, 3-nitro-1-(5-nitro-2-thiazolyl)-4-pyrazolecarbonitrile] |  |  |  |  |  |  |  | 50 (≈ 188 µM) | 25 (≈ 93.9 µM) | 12.5 (≈ 47 µM) | 50 (≈ 188 µM) | 12.5 (≈ 47 µM) | 50 (≈ 188 µM) | 25 (≈ 93.9 µM) |  |
| N#Cc1cn(-c2ccc([N+](=O)[O-])cc2)nc1[N+](=O)[O-] [Compound 92, 3-nitro-1-(4-nitrophenyl)-4-pyrazolecarbonitrile] |  |  |  |  |  |  |  | > 50 | 6.25 (≈ 24.1 µM) | 6.25 (≈ 24.1 µM) | 50 (≈ 193 µM) | 0.78 (≈ 3.01 µM) | > 50 | 12.5 (≈ 48.2 µM) |  |
| CCSCCn1cc(C#N)c([N+](=O)[O-])n1 [Compound 72, 1-(2-ethylthioethyl)-3-nitro-4-pyrazolecarbonitrile] | > 50 | > 50 | > 50 | > 50 | > 50 | > 50 | > 50 |  |  |  |  |  |  |  |  |
| Cn1cc(C#N)c([N+](=O)[O-])n1 [Compound 30, 1-methyl-3-nitro-4-pyrazolecarbonitrile] | 100 (≈ 657 µM) | 100 (≈ 657 µM) | 100 (≈ 657 µM) | 100 (≈ 657 µM) |  | 100 (≈ 657 µM) | 50 (≈ 329 µM) |  |  |  |  |  |  |  |  |
| NC(=O)c1cn(-c2ccc([N+](=O)[O-])cc2)nc1[N+](=O)[O-] [Compound 5, 3-nitro-1-(4-nitrophenyl)-4-pyrazolecarboxamide] |  |  |  |  |  |  |  | > 50 | 3.12 (≈ 11.3 µM) | 6.25 (≈ 22.5 µM) | > 50 | 3.12 (≈ 11.3 µM) | > 50 | 25 (≈ 90.2 µM) |  |
| Cn1cc(C(=O)NN=Cc2ccc([N+](=O)[O-])o2)c([N+](=O)[O-])n1 [Compound 74, 1-methyl-3-nitro-4-pyrazolecarboxylic acid, 5-nitrofurfurylidene hydrazide] |  |  |  |  |  |  |  | 12.5 (≈ 40.6 µM) | 1.56 (≈ 5.06 µM) | 0.39 (≈ 1.27 µM) | 50 (≈ 162 µM) |  | 6.25 (≈ 20.3 µM) | 0.78 (≈ 2.53 µM) |  |
| CC(O)Cn1cc(C(N)=O)c([N+](=O)[O-])n1 (stereo not drawn) [Compound 69, 1-(2-hydroxypropyl)-3-nitro-4-pyrazolecarboxamide] |  |  |  |  |  |  |  |  |  |  |  |  |  |  | 100 |
| Cc1ccc(C(=O)OCCn2cc(C(N)=O)c([N+](=O)[O-])n2)cc1 [Compound 76, [2-(4-carbamoyl-3-nitropyrazol-1-yl)ethyl] p-toluate] |  |  |  |  |  |  |  |  |  |  |  |  |  |  | 100 |
| N#CCCn1cc(C#N)c([N+](=O)[O-])n1 [Compound 73, 4-cyano-3-nitro-1-pyrazolepropionitrile] | 50 (≈ 262 µM) | 50 (≈ 262 µM) | 25 (≈ 131 µM) | 50 (≈ 262 µM) | 12.5 (≈ 65.4 µM) | 50 (≈ 262 µM) | 50 (≈ 262 µM) |  |  |  |  |  |  |  |  |
| N#Cc1cn(CCBr)nc1[N+](=O)[O-] [Compound 91, 1-(2-bromoethyl)-3-nitro-4-pyrazolecarbonitrile] | > 50 | > 50 | 12.5 (≈ 51 µM) | 50 (≈ 204 µM) | 12.5 (≈ 51 µM) | > 50 | > 50 |  |  |  |  |  |  |  |  |
| N#Cc1cn(CC2CO2)nc1[N+](=O)[O-] (stereo not drawn) [Compound 31, 1-(2,3-epoxypropyl)-3-nitro-4-pyrazolecarbonitrile] | 50 (≈ 258 µM) | 50 (≈ 258 µM) | 12.5 (≈ 64.4 µM) | 50 (≈ 258 µM) |  | 50 (≈ 258 µM) | 50 (≈ 258 µM) |  |  |  |  |  |  |  |  |
| NC(=O)c1c[nH]nc1[N+](=O)[O-] [Compound 60, 3(5)-nitro-4-pyrazolecarboxamide] | > 50 | > 50 | > 50 | > 50 | 25 (≈ 160 µM) | > 50 | 50 (≈ 320 µM) |  |  |  |  |  |  |  |  |
